# Assay results from PMC6934184, “Selective DNA-PKcs inhibition extends the therapeutic index of localized radiotherapy and chemotherapy” (The Journal of Clinical Investigation, 2019).
# Target: T1, TEK (Tie2) (Homo sapiens, UniProt Q02763)
# T1 construct: purchased Thermo Fisher Scientific (Life Technologies) SelectScreen
# Experiment: SelectScreen Z'LYTE
# Format: biochemical
# How it was run: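 SelectScreen broad panel; activity (Z'LYTE, Adapta) plus binding formats. ATP: Km app for CSF1R Z'LYTE; 10 for CAMK1 Adapta. Readout = % per kinase.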
# T1 sequence (Q02763 23-1124): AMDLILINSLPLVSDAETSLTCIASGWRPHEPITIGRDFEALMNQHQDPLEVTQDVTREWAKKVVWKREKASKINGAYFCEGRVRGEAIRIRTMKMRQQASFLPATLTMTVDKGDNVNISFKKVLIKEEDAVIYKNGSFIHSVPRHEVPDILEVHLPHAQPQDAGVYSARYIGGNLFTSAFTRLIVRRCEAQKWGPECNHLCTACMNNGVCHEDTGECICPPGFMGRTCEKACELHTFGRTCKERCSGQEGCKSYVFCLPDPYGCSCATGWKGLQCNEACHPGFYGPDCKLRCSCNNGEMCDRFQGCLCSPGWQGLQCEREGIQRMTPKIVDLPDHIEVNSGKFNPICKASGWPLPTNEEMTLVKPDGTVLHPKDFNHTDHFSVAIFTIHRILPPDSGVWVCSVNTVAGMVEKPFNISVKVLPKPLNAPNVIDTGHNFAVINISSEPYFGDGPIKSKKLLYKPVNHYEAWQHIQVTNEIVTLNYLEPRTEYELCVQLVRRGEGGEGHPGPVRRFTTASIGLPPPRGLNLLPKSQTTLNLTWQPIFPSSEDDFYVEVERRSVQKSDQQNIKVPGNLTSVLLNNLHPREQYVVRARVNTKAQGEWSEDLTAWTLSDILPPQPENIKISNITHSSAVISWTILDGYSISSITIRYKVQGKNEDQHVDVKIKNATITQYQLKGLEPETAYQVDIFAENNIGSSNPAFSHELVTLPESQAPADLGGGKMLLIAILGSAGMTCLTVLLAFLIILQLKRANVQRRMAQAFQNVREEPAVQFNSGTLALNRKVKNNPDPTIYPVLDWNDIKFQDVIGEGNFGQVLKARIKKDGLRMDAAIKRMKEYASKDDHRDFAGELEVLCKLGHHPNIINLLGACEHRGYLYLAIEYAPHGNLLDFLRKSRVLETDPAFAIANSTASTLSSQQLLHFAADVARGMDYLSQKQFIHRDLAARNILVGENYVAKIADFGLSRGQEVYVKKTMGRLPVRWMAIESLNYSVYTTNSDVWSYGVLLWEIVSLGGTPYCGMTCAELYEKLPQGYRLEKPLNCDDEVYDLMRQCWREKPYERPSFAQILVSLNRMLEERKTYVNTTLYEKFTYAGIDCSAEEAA
smiles,measurement,value
CN(C(=O)CN1CCOCC1)c1ccc2sc3c(-c4cccc5c(=O)cc(N6CC7CCC(C6)O7)oc45)cccc3c2c1 [NU5455],inhibition at 1 µM,-0.1%
